What was measured:
[1] = target: T1, hM1 (human Muscarinic receptor subtype 1) (Homo sapiens, UniProt P11229); assay: Human M1 calcium mobilization FLIPR assay; format: cell-based; conditions: hM1 expressed in CHO cells, intracellular Ca2+ release (FLIPR)
T1 construct: expressed in transfected cells; host or cells: CHO cells (ATCC)
T1 sequence (P11229 1-460): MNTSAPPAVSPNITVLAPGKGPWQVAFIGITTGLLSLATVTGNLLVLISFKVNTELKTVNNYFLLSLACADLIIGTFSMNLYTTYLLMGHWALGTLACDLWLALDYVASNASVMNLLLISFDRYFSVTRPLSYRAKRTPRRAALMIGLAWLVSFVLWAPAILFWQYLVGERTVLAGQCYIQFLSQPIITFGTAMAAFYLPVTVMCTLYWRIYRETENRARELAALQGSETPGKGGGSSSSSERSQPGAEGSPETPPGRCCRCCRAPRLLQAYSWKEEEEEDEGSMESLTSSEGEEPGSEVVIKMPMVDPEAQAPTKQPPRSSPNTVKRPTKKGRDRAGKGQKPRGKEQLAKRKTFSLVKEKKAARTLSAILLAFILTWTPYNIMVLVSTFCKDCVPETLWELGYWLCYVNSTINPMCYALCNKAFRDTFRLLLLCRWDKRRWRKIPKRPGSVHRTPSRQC
Experimental: (§1) Human M1, rat M1, Human M3 and Human M5 Calcium Mobilization FLIPR™ Assay The compound activity in the present invention (EC50 or IC50) is measured using a 384 plate-based imaging assay that monitors drug induced intracellular Ca^2+ release in whole cells. Activation of hM1 (human Muscarinic receptor subtype 1, gene bank access NM_000738), rM1 (rat Muscarinic receptor subtype 1, gene bank access NM_080773), hM3 (human Muscarinic receptor subtype 3, gene bank access NM_000740NM_000740) and hM5 (human Muscarinic receptor subtype 5, gene bank access NM_0121258), receptors expressed in CHO cells (Chinese hamster ovary cells, ATCC) is quantified in a Molecular Devices FLIPR IITM instrument as an increase in fluorescent signal. Inhibition of hM3 and hM5 by compounds is determined by the decrease in fluorescent signal in response to 2 nM acetylcholine activation. […] Prior to experiment, the cell culture medium is removed from the plates by inversion. […] Plates are incubated at 37° C. for 60 minutes prior to start the experiment. The incubation is terminated by washing the cells four times in assay buffer, leaving a residual 25 μl buffer per well. Cell plates are then transferred to the FLIPR, ready for compound additions. The day of experiment, acetylcholine and compounds are diluted in assay buffer in three-fold concentration range (10 points serial dilution) for addition by FLIPR instrument. For all calcium assays, a baseline reading is taken for 10 seconds followed by the addition of 12.5 μl of compounds, resulting in a total well volume of 37.5 μl. Data is collected every second for 60 pictures and then every 6 seconds for 20 pictures prior to the addition of agonist. For hM3 and hM5, before agonist addition, a second baseline reading is taken for 10 seconds followed by the addition of 12.5 μl of agonist or buffer, producing a final volume of 50 μl. After agonist stimulation, the FLIPR continues to collect data every second for 60 pictures and then every 6 seconds for 20 pictures. The fluorescence emission is read using filter 1 (emission 510-570 nm) by the FLIPR on board CCD camera. Calcium mobilization output data are calculated as the maximal relative fluorescence unit (RFU) minus the minimal value for both compound and agonist reading frame (except for hM1 and rM1 using only the maximal RFU). Data are analyzed using sigmoidal fits of a non-linear curve-fitting program (XLfit version 4.2.2 Excel add-in version 4.2.2 build 18 math 1Q version 2.1.2 build 18). All pEC50 and pIC50 values are reported as arithmetic means±standard error of mean of ‘n’ independent experiments.

[2] = target: T2, hM3 (human Muscarinic receptor subtype 3) (Homo sapiens, UniProt P20309); assay: Human M3 calcium mobilization FLIPR assay; format: cell-based; conditions: hM3 expressed in CHO cells, intracellular Ca2+ release (FLIPR)
T2 construct: expressed in transfected cells; host or cells: CHO cells (ATCC)
T2 sequence (P20309 whole entry): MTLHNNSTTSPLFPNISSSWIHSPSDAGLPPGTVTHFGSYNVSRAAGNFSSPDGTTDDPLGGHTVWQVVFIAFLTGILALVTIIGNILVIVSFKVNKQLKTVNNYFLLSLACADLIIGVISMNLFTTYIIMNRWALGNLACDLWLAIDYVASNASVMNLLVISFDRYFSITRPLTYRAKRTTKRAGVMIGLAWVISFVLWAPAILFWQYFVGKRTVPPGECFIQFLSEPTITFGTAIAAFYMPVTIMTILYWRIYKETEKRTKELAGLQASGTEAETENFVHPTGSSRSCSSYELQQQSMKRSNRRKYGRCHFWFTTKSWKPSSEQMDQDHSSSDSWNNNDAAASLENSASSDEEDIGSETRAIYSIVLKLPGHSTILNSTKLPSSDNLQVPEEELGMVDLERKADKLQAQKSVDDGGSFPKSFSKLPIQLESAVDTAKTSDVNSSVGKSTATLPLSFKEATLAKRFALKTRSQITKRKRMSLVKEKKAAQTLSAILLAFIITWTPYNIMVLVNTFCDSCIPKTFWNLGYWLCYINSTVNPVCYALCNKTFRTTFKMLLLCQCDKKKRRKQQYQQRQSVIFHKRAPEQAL
Experimental: as §1

cloned human M2 receptor = target: T3, cloned human M2 receptor (Homo sapiens, UniProt P08172); assay: hM2 receptor GTPγS binding; format: biochemical; conditions: CHO membranes expressing hM2, [35S]GTPγS binding
T3 construct: purchased Perkin-Elmer RBHM2M; host or cells: Chinese hamster ovary cells (CHO), membranes
T3 sequence (P08172 1-466): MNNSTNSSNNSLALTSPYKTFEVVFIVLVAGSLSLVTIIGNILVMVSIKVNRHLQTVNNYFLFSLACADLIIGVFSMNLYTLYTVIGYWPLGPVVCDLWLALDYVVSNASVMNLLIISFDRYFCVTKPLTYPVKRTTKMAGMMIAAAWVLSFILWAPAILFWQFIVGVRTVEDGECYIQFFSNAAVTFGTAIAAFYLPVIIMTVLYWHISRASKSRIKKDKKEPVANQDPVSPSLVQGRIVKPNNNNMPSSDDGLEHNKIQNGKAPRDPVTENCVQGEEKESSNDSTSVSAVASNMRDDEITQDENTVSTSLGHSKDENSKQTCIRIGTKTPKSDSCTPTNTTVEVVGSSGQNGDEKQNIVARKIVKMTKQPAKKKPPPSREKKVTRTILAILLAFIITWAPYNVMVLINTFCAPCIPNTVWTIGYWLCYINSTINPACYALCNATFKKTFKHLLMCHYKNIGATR
Experimental: hM2 Receptor GTPγS Binding Membranes produced from Chinese hamster ovary cells (CHO) expressing the cloned human M2 receptor (human Muscarinic receptor subtype 2, gene bank access NM_000739), are obtained from Perkin-Elmer (RBHM2M). The membranes are thawed at 37° C., passed 3 times through a 23-gauge blunt-end needle, diluted in the GTPγS binding buffer (50 mM Hepes, 20 mM NaOH, 100 mM NaCl, 1 mM EDTA, 5 mM MgCl2, pH 7.4, 100 μM DTT). The EC50, IC50 and Emax of the compounds of the invention are evaluated from 10-point dose-response curves (three fold concentration range) done in 60 μl in 384-well non-specific binding surface plate (Corning). Ten microliters from the dose-response curves plate (5× concentration) are transferred to another 384 well plate containing 25 μl of the following: 5 μg of hM2 membranes, 500 μg of Flashblue beads (Perkin-Elmer) and GDP 25 μM. An additional 15 μl containing 3.3× (60,000 dpm) of GTPγ^35S (0.4 nM final) are added to the wells resulting in a total well volume of 50 μl. Basal and maximal stimulated [^35S]GTPγS binding are determined in absence and presence of 30 μM final of acetylcholine agonist. The membranes/beads mix are pre-incubated for 15 minutes at room temperature with 25 μM GDP prior to distribution in plates (12.5 μM final). The reversal of acetylcholine-induced stimulation (2 μM final) of [^35S]GTPγS binding is used to assay the antagonist properties (IC50) of the compounds. The plates are incubated for 60 minutes at room temperature then centrifuged at 400 rpm for 5 minutes. The radioactivity (cpm) is counted in a Trilux (Perkin-Elmer). Values of EC50, IC50 and Emax are obtained using sigmoidal fits of a non-linear curve-fitting program (XLfit version 4.2.2 Excel add-in version 4.2.2 build 18 math 1Q version 2.1.2 build 18) of percent stimulated [^35S]GTPγS binding vs. log(molar ligand). All pEC50 and pIC50 values are reported as arithmetic means±standard error of mean of ‘n’ independent experiments.

EC50 [1]	EC50 [2]	EC50 (cloned human M2 receptor)	SMILES
190 nM			CCOCC1(C)CCC(N2CCC(N3C(=O)CO[C@H]4CCCC[C@@H]43)CC2)CC1 (single isomer, unassigned) [Example 31]
80 nM			CCOC[C@H]1CC[C@@H](N2CCC(N3C(=O)COC4CCCCC43)CC2)CC1 (single isomer, unassigned) [Example 34]
93 nM			O=C1CO[C@@H]2CCC[C@@H]2N1C1CCN([C@H]2CC[C@@H](COCC3CC3)CC2)CC1 [Example 47, (4aS,7aR)-4-(1-((1s,4R)-4-((cyclopropylmethoxy)methyl)cyclohexyl)piperidin-4-yl)hexahydrocyclopenta[b][1,4]oxazin-3(2H)-one]
0.76 nM		340 nM	O=C1NC[C@H]2CCCC[C@@H]2N1C1CCN(C2CCC(COCC(F)F)CC2)CC1 (single isomer, unassigned) [Example 50]
310 nM			CC(C)OCC1CCC(N2CCC(N3C(=O)CO[C@@H]4CCC(F)(F)C[C@H]43)CC2)CC1 (single isomer, unassigned) [Example 36]
52 nM		> 15000 nM	O=C1CO[C@H]2CCCC[C@@H]2N1C1CCN(C2CC(COCC3CC3)C2)CC1 (single isomer, unassigned) [Example 41]
180 nM			CC(C)OCC1CCC(N2CCC(N3C(=O)CO[C@@H]4CCC(F)(F)C[C@H]43)CC2)CC1 (single isomer, unassigned) [Example 35]
200 nM			CCOCC1(C)CCC(N2CCC(N3C(=O)CO[C@H]4CCCC[C@@H]43)CC2)CC1 (single isomer, unassigned) [Example 30]
290 nM			CCOC[C@H]1CC[C@@H](N2CCC(N3C(=O)CO[C@@H]4CCCC[C@H]43)CC2)C1 [Example 46, (4aR,8aR)-4-(1-((1R,3S)-3-(ethoxymethyl)cyclopentyl)piperidin-4-yl)hexahydro-2H-benzo[b][1,4]oxazin-3(4H)-one]
190 nM			O=C1CO[C@@H]2CCCC[C@H]2N1C1CCN([C@H]2CC[C@@H](COCC3CC3)CC2)CC1 [Example 32, (4aR,8aR)-4-(1-((1s,4S)-4-((cyclopropylmethoxy)methyl)cyclohexyl)piperidin-4-yl)hexahydro-2H-benzo[b][1,4]oxazin-3(4H)-one]
110 nM			CCOC[C@H]1CC[C@@H](N2CCC(N3C(=O)COC4CCCCC43)CC2)CC1 (single isomer, unassigned) [Example 33]
110 nM			O=C1COC2CCCC2N1C1CCN([C@H]2CC[C@@H](COCC3CC3)CC2)CC1 (single isomer, unassigned) [Example 49]

More lines, now with the values behind:

SMILES	EC50 [1]	EC50 [2]	EC50 (cloned human M2 receptor)
O=C1NC[C@H]2CCCC[C@@H]2N1C1CCN(C2CCCCC2)CC1 [Example 12, (4aR,8aS)-1-(1-cyclohexylpiperidin-4-yl)octahydroquinazolin-2(1H)-one]	60 nM	> 40 µM	
O=C1CO[C@H]2CCCC[C@@H]2N1C1CCN(C2CCC(OCC3CC3)CC2)CC1 (single isomer, unassigned) [Example 20]	170 nM		
C#CCOC1CCC(N2CCC(N3C(=O)NC[C@H]4CCCC[C@@H]43)CC2)CC1 (mixture of isomers) [Example 09, (4aR,8aS)-1-(1-(4-(prop-2-ynyloxy)cyclohexyl)piperidin-4-yl)octahydroquinazolin-2(1 H)-one]	31 nM		
CCCOC1CCC(N2CCC(N3C(=O)NC[C@H]4CCCC[C@@H]43)CC2)CC1 (single isomer, unassigned) [Example 05]	160 nM		
O=C1NC[C@H]2CCCC[C@@H]2N1C1CCN(C2CCCC2)CC1 [Example 10, (4aR,8aS)-1-(1-cyclopentylpiperidin-4-yl)octahydroquinazolin-2(1H)-one]	68 nM		
CCC1CCC(N2CCC(N3C(=O)NC[C@H]4CCCC[C@@H]43)CC2)CC1 (mixture of isomers) [Example 11, (4aR,8aS)-1-(1-(4-ethylcyclohexyl)piperidin-4-yl)octahydroquinazolin-2(1H)-one]	43 nM	> 40 µM	
CCCOC1CCC(N2CCC(N3C(=O)CO[C@H]4CCCC[C@@H]43)CC2)CC1 (single isomer, unassigned) [Example 16]	190 nM		
O=C1CO[C@H]2CCCC[C@@H]2N1C1CCN(C2CCC(OCC3CC3)CC2)CC1 (single isomer, unassigned) [Example 21]	110 nM		
CC(C)OC1CCC(N2CCC(N3C(=O)NC[C@H]4CCCC[C@@H]43)CC2)CC1 (single isomer, unassigned) [Example 07]	660 nM		

Reference: patent publication US20090275574A1, “NOVEL COMPOUNDS-300” (ASTRAZENECA AB, priority 2008, published 2009)
